Reference: article PMC3843672, “Resistance to Degradation and Cellular Distribution are Important Features for the Antitumor Activity of Gomesin” (PLoS ONE, 2013)
Where a SMILES comes first, the peptide text is derived from it. [ ]: non-standard residue; d: D form. d(pGlu) = O=C1CC[C@H](C(=O)O)N1; pGlu = O=C1CC[C@@H](C(=O)O)N1

How the values were obtained:
[1] = tested on: B16 F10 mouse melanoma cell line; format: cell-based; details: 24 h
Method: B16 F10 mouse melanoma cell line was cultured in RPMI medium supplemented with 10% fetal bovine serum (FBS; Gibco, USA), 10 U/ml penicillin and 10 µg/ml streptomycin. Cells were cultured in a humidified incubator containing 2.5% CO2 at 37°C.
B16 cells were incubated in 96-well microtiter plates in RPMI medium supplemented with 10% FBS until reach the semi-confluence and then treated with different concentrations of Gm and its analogues for 24 h. To investigate the mechanisms of Gm-induced cell death, B-16 cells were also pre-incubated with 40 µM cytochalasin D (Tocris, USA); 20 µM necrostatin-1 (Tocris, USA), 10 µM Z-VAD (Tocris, USA), 5 mM MβCD (Tocris, USA), and 100 µM chloroquine (Tocris, USA) for 1 h. Cell viability was determined using the standard reduction of the tetrazolium salt 3-(4,5-dimethylthiazol-2-yl)-2,5-diphenyltetrazolium bromide (MTT). The results were expressed relative to control cell viability (100%).

B16 cells = assay: Peptide internalized into cells, biotinylated peptides, flow cytometry; format: cell-based, mouse; details: for internal presence of peptide after 24 h: 2 µM biotinylated peptides; for Max. Internal Fluorescence: biotinylated peptides used, 2 µM, B16 cells, streptavidin-Alexa 647 (FL4) after fixation and saponin permeabilization, maximum over time course, mean ± SEM, three independent experiments
Method: Cells were treated with the 2 µM biotinylated peptide. Then, the melanoma cells (5×10^5 for flow cytometry or 5×10^3 cell seeded for confocal microscopy) were labeled with streptavidin-Alexa 488 (Invitrogen, USA) for 30 min at 4°C and washed with PBS. The cells were fixed with a solution of 2% paraformaldehyde for 30 min, washed with 0.1 M glycin, and permeabilized with 0.01% saponin. Then, the cells were labeled with streptavidin-Alexa 647 (Invitrogen, USA). For flow cytometry, the cells were extracted using PBS with 5 mM EDTA previously to fixation. The quantification of label of external biotynilated peptide, and intracellular peptide were performed by flow cytometry or confocal microscopy. For flow cytometry the cells were excited using argon laser (488 nm), and diode laser (633 nm). The emission was collected in FL-1 and FL-4 channel. A total of 10,000 events were collected per sample. For confocal microscopy, nuclei were stained with DAPI. Confocal microscopy analyses were performed with a confocal laser scanning microscope equipped with a Plan-Apochromat ×63 objective under oil immersion (Zeiss, LSM780). The pinhole device was adjusted to capture fluorescence of one airy unit. The images correspond to single focal plane. Streptavidin-Alexa Fluor 488 were excited using an argon laser (λEx. = 488 nm, λEm. = 505–550 nm), streptavidin-Alexa Fluor 647 was excited using a HeNe laser (λEx. = 633 nm, λEm. = 640–710 nm) and DAPI was excited using a multiphoton laser (Coherent) (λEx. = 750 nm, λEm. = 380–460 nm). Unviable cells were excluded with propidium iodide (PI) label.
We quantified the Gm and analogues binding to the cellular membrane, and their internalization using their biotinylated counterpart. […] Unviable cells were excluded by PI label (Figure S2). External peptides labeled with streptavidin Alexa Fluor 488 were identified for the quantification of the green fluorescence (FL1 channel), and internal peptides labeled with streptavidin Alexa Fluor 647 were identified for the quantification of the deep red fluorescence (FL4 channel), after permeabilization of cellular membrane, by Flow cytometry. […] On the other hand, the peptides that present lower cytotoxicity were not retained after 24 h (Figure 3A-F). However, a direct relation between binding, peptide entrance, and cytotoxicity effect was not full observed, the entrance into cells seem to be important to the action of several AMPs. To verify the participation of the entry of peptide with cytotoxicity cholesterol level cholesterol level was reduced incubating the cells with MβCD for 1 h, which increase the membrane fluidity. As expected, the treatment of the cells with MβCD increases the entry of peptide (Figure 3G) and increases the cytotoxicity of the peptides, except the analogue [Thr^2,6,11,15]-Gm (Figure 3H).

[2] = Resistance to degradation by lysosomal enzymes (LC/ESI-MS); format: in vitro ADME; details: 37°C; for resistance to lysosomal enzyme degradation (in words): sonicated cells, pH 5 Tris buffer, different times, LC/ESI-MS (Figure 2B); for Peptide Degradation: sonicated cultured cells in pH 5 Tris buffer (lysosomal enzymes), incubation 1–14 h, starting peptide concentration 10^−4 M taken as 100%, LC/ESI-MS, mean ± SEM
Method: The cultured cells were resuspended using pH 5 Tris buffer, and then sonicated. Protein concentration was measured using the RC DC protein assay kit (Bio-Rad, CA, USA) according to the manufacturer’s instructions. The peptides were incubated with this protein solution for 1–14 h, and its stability was evaluated by reversed-phase liquid chromatography coupled with an electrospray ionization mass spectrometer (LC/ESI-MS).
Figure 2 Lysosomal enzymes participate in the cytotoxic reduction activities of the Gm analogues. (A, C and D) Cell viability was assessed by the MTT reduction test. (A) Cells were incubated with cytoskeletal inhibitor (cytochalasin D), and lysosomal inhibitor (chloroquine) for 1 h before to stimulation by Gm, and its analogues for 24 h. Chloroquine potentiated the cytotoxicity of peptides. (B) Since chloroquine was able to potentiate the cytotoxicity of the peptides, resistance to degradation of lysosomal enzymes was evaluated by LC/ESI-MS. Peptides were incubated at 37°C for different times. (C) Cells were incubated with the IC50 concentration for each peptide. Cytotoxic activities after 24 and 72 h of the peptide incubation were compared.

internal presence of peptide after 24 h (B16 cells)	Compound	IC50 [1] [µM]	Max. Internal Fluorescence (B16 cells) [AU]	resistance to lysosomal enzyme degradation (in words) [2]	Peptide Degradation [2] [%]	fold less potent than Gm ([1]; B16 cells, MTT, ratio of potencies) [fold]
internal presence	CC(C)C[C@@H](NC(=O)[C@@H](CCCNC(=N)N)NC(=O)[C@@H](CCCNC(=N)N)NC(=O)[C@H](NC(=O)[C@H]1CCC(=O)N1)[C@H](C)O)C(=O)N[C@@H](C(=O)N[C@H](Cc1ccc(O)cc1)C(=O)N[C@H](CCCCN)C(=O)N1CCC[C@H]1C(=O)N[C@H](CCCNC(=N)N)C(=O)N[C@@H](C(=O)N[C@@H](C(=O)N[C@@H](C(=O)N[C@H](Cc1ccc(O)cc1)C(=O)N[C@@H](C(=O)N[C@H](CCCNC(=N)N)C(=O)NCC(=O)N[C@H](CCCNC(=N)N)C(N)=O)[C@H](C)O)[C@H](C)O)C(C)C)[C@H](C)O)[C@H](C)O [[D-Thr^2,6,11,15, Pro^9]-D-Gm] ([d(pGlu)][dT][dR][dR][dL][dT][dY][dK]P[dR][dT][dV][dT][dY][dT][dR]G[dR]-NH2)	75	2751±190	little affected by lysosomal enzymes	15±2	
	CC(C)C[C@H](NC(=O)[C@H](CCCNC(=N)N)NC(=O)[C@H](CCCNC(=N)N)NC(=O)[C@@H](NC(=O)[C@@H]1CCC(=O)N1)[C@@H](C)O)C(=O)N[C@H](C(=O)N[C@@H](Cc1ccc(O)cc1)C(=O)N[C@@H](CCCCN)C(=O)N[C@@H](CCC(N)=O)C(=O)N[C@@H](CCCNC(=N)N)C(=O)N[C@H](C(=O)N[C@H](C(=O)N[C@H](C(=O)N[C@@H](Cc1ccc(O)cc1)C(=O)N[C@H](C(=O)N[C@@H](CCCNC(=N)N)C(=O)NCC(=O)N[C@@H](CCCNC(=N)N)C(N)=O)[C@@H](C)O)[C@@H](C)O)C(C)C)[C@@H](C)O)[C@@H](C)O [[Thr^2,6,11,15]-Gm] ([pGlu]TRRLTYKQRTVTYTRGR-NH2)	> 200	753±175	most sensitive peptides to degradation	43±4	
internal presence	CC(C)C[C@H](NC(=O)[C@H](CCCNC(=N)N)NC(=O)[C@H](CCCNC(=N)N)NC(=O)[C@@H](NC(=O)[C@@H]1CCC(=O)N1)[C@@H](C)O)C(=O)N[C@H](C(=O)N[C@@H](Cc1ccc(O)cc1)C(=O)N[C@@H](CCCCN)C(=O)N1CCC[C@@H]1C(=O)N[C@@H](CCCNC(=N)N)C(=O)N[C@H](C(=O)N[C@H](C(=O)N[C@H](C(=O)N[C@@H](Cc1ccc(O)cc1)C(=O)N[C@H](C(=O)N[C@@H](CCCNC(=N)N)C(=O)NCC(=O)N[C@@H](CCCNC(=N)N)C(N)=O)[C@@H](C)O)[C@@H](C)O)C(C)C)[C@@H](C)O)[C@@H](C)O [[Thr^2,6,11,15, D-Pro^9]-Gm] ([pGlu]TRRLTYK[dP]RTVTYTRGR-NH2)	90	1165±27	stable to enzymatic degradation	16±1	
	CC(C)C[C@H](NC(=O)[C@H](CCCNC(=N)N)NC(=O)[C@H](CCCNC(=N)N)NC(=O)[C@H](CO)NC(=O)[C@@H]1CCC(=O)N1)C(=O)N[C@@H](CO)C(=O)N[C@@H](Cc1ccc(O)cc1)C(=O)N[C@@H](CCCCN)C(=O)N[C@@H](CCC(N)=O)C(=O)N[C@@H](CCCNC(=N)N)C(=O)N[C@@H](CO)C(=O)N[C@H](C(=O)N[C@H](C(=O)N[C@@H](Cc1ccc(O)cc1)C(=O)N[C@@H](CO)C(=O)N[C@@H](CCCNC(=N)N)C(=O)NCC(=O)N[C@@H](CCCNC(=N)N)C(N)=O)[C@@H](C)O)C(C)C [[Ser^2,6,11,15]-Gm] ([pGlu]SRRLSYKQRSVTYSRGR-NH2)	> 200	305±65	most sensitive peptides to degradation	47±5	

Compound	internal presence of peptide after 24 h (B16 cells)	IC50 [1] [µM]	Max. Internal Fluorescence (B16 cells) [AU]	resistance to lysosomal enzyme degradation (in words) [2]	Peptide Degradation [2] [%]	fold less potent than Gm ([1]; B16 cells, MTT, ratio of potencies) [fold]
CC(C)C[C@@H](NC(=O)[C@@H](CCCNC(=N)N)NC(=O)[C@@H](CCCNC(=N)N)NC(=O)[C@H](NC(=O)[C@H]1CCC(=O)N1)[C@H](C)O)C(=O)N[C@@H](C(=O)N[C@H](Cc1ccc(O)cc1)C(=O)N[C@H](CCCCN)C(=O)N[C@H](CCC(N)=O)C(=O)N[C@H](CCCNC(=N)N)C(=O)N[C@@H](C(=O)N[C@@H](C(=O)N[C@@H](C(=O)N[C@H](Cc1ccc(O)cc1)C(=O)N[C@@H](C(=O)N[C@H](CCCNC(=N)N)C(=O)NCC(=O)N[C@H](CCCNC(=N)N)C(N)=O)[C@H](C)O)[C@H](C)O)C(C)C)[C@H](C)O)[C@H](C)O [[D-Thr^2,6,11,15]-D-Gm] ([d(pGlu)][dT][dR][dR][dL][dT][dY][dK][dQ][dR][dT][dV][dT][dY][dT][dR]G[dR]-NH2)	internal presence	25	602±12	little affected by lysosomal enzymes	12±2	3.5
